{"source": "patent US7122314B2", "about": "“Methods for detecting vancomycin-resistant microorganisms and compositions therefor” (ID Biomedical Corporation, priority 2002, dated 2006)", "key": {"[1]": {"system": "VanA phenotype enterococci", "conditions": "inducible resistance; cited from earlier work"}, "[2]": {"system": "vanA and vanB genes", "assay": "Non-isotopic CPT-EIA VRE screen of enterococcal isolates", "conditions": "threshold 0.14 OD650; 27 isolates, five operators", "from_the_text": "This following example describes a rapid single probe non-isotopic CPT assay for screening dual VRE genes (vanA and vanB) from Enterococcal isolates. The non-isotopic VRE assay, which combines CPT with an enzyme immunoassay (CPT-EIA), is schematically illustrated in FIG. 2. Because of the lack of homology between the vanA and vanB genes, it was not possible to find a common sequence that was suitable for a perfectly complementary CPT chimeric probe. It was necessary to design a probe that had two mismatches to vanA in the 5′ DNA arm and two mismatches to vanB in the 3′ DNA arm. In spite of the mismatches, the probe worked well to discriminate vanA and vanB from vanC and VSE isolates.\nThe dual detection single chimeric probe specific for detecting vanA and vanB genes are synthesized, fluoresceinated and biotinylated as described in Example 1. The purified thermostable RNase H is prepared as described in Example 3.\nThe sources of Enterococcal isolates and growth conditions are as described in Example 2. Lysis\nThe cells are lysed by placing a 1-μL loopful of culture growth in 50 μL of Lysis Reagent. […]\nAfter cycling, 3 drops (˜100 μL) of Cycle Stop Reagent containing sheep polyclonal antifluorescein-horseradish peroxidase (HRP) conjugate and 0.16% SDS in Peroxidase Stabilizing Buffer (DAKO, Mississauga, ON) is added to the cycling reaction. […] The plate is read with a Vmax plate reader at OD650. […]"}}, "data": [{"compound": "CN[C@H](CC(C)C)C(=O)N[C@H]1C(=O)N[C@@H](CC(N)=O)C(=O)N[C@H]2C(=O)N[C@H]3C(=O)N[C@H](C(=O)N[C@H](C(=O)O)c4cc(O)cc(O)c4-c4cc3ccc4O)[C@H](O)c3ccc(c(Cl)c3)Oc3cc2cc(c3O[C@@H]2O[C@H](CO)[C@@H](O)[C@H](O)[C@H]2O[C@H]2C[C@](C)(N)[C@H](O)[C@H](C)O2)Oc2ccc(cc2Cl)[C@H]1O", "note": "[vancomycin]", "values": [{"measurement": "MIC", "setting": "[1]", "value": "≥ 64", "unit": "µg/mL"}]}, {"compound": "5′-CAT GAT GTG TCG GTa aaa TCT GCA ATA GAG A-3′ (DNA CATGATGTGTCGGTAAAATCTGCAATAGAGA; scissile link, further chemistry not given here) [vanB110-m3]", "values": [{"measurement": "sensitivity", "setting": "[2]", "value": 98.7, "unit": "%"}, {"measurement": "specificity", "setting": "[2]", "value": 100, "unit": "%"}]}, {"compound": "teicoplanin", "values": [{"measurement": "MIC", "setting": "[1]", "value": "≥ 16", "unit": "µg/mL"}]}]}
